Assay results published in patent US20080200499A1, “Selective Insecticides and/or Acaricides Based on Substituted Cyclic Dicarbonyl Compounds and Safeners” (priority 2004, published 2008).

Tests used:
Type in all cases: in vivo
[1] = tested on: grain aphids (Metopolophium dirhodum); assay: Metopolophium dirhodum test (spray application); conditions: barley plants
Source text: (§1) The expected activity of a given combination of two active compounds can be calculated according to S. R. Colby, Weeds 15 (1967), 20-22 as follows:
(§2) if • X is the kill rate when employing active compound A at an application rate of m g/ha or in a concentration of m ppm, • Y is the kill rate when employing active compound B at an application rate of n g/ha or in a concentration of n ppm and • E is the kill rate when using the active compounds A and B at application rates of m and n g/ha or in a concentration of m and n ppm, then
(§3) If the actual activity exceeds the calculated value, the activity of the combination is superadditive, i.e. a synergistic effect is present. In this case, the actually observed kill rate must exceed the value calculated using the above formula for the expected kill rate (E).
(§4) To prepare a suitable application solution, 1 part by weight of formulation is mixed with the appropriate amount of water and the adjuvant and the concentrate is diluted with water to the desired concentration.
Barley plants (Hordeum vulgare) which are heavily infested by a grain aphids (Metopolophium dirhodum) are sprayed to runoff point with the desired concentration of the application solution.
(§5) After the desired period of time, the kill in % is determined. 100% means that all aphids have been killed; 0% means that none of the aphids have been killed. The determined kill rates are entered in Colby's formula.

[2] = tested on: cotton aphid (Aphis gossypii); assay: Aphis gossypii test (spray application); conditions: cotton plants
Source text: as §1, §2, §3, §4
Cotton plants (Gossypium herbaceum) which are heavily infested by the cotton aphid (Aphis gossypii) are sprayed to runoff point with the desired concentration of the application solution.
as §5

[3] = tested on: green peach-aphid (Myzus persicae); assay: Myzus persicae test (spray application); conditions: bell pepper plants
Source text: as §1, §2, §3, §4
Bell pepper plants (Capsicum sativum) which are heavily infested by the green peach-aphid (Myzus persicae) are sprayed to runoff point with the desired concentration of the application solution.
as §5

Maize = assay: Greenhouse trial with safener after seed dressing (seed trays), maize; conditions: evaluation after 14 d
Description: In an agate mortar, the amount of safener and the amount of active compound required to prepare a 20 WS formulation are dissolved in acetone, and the appropriate amount of formulation without active compounds (which is actually used to prepare Gaucho 70 WS) is added. The mixture is allowed to dry until only a small amount of residual moisture can be detected. Using a spatula, the substance is carefully detached from the side of the mortar, and the substance is comminuted in the mortar until it has dried. An amount of the laboratory formulation thus prepared which is appropriate for the amount of seed to be dressed is filled into beakers of a size big enough so that, during dressing, they are at most one third filled with seed. A sufficient amount of water (depending on the properties of the seed surface) is then added. The seed is then filled into these beakers containing formulation and water and dressed on a test tube shaker with the aid of a spatula or glass rod. Once the formulation is distributed on the seed as uniformly as possible, the seed is allowed to dry in a fume hood. 3 l trays made of plastic (20×20×5 cm) are filled with sandy loam. Using a punch, the soil is firmed such that the deposition depth required for the crop in question is achieved. 20 seeds/seed tray are placed at regular intervals with the aid of a pair of tweezers impressed into the soil using the abovementioned punch. The test containers are placed in a greenhouse and, using the punch, the surface is once again firmed gently. In addition to the test substances, an untreated control is tested, too. Per variant, there are at least 2 trays. The trays are watered and covered with a film until the plants have emerged. After emergence, the trays are watered 2 times a day. Evaluation is carried out by counting the plants that have emerged and by assessing damage, (in %) over an interval of 5-14 days after sowing in comparison to the untreated control.

Summer barley = assay: Greenhouse trial with safener after seed dressing (seed trays), summer barley; conditions: evaluation after 14 d
Description: (§6) In an agate mortar, the amount of safener and the amount of active compound required to prepare a 20 WS formulation are dissolved in acetone, and the appropriate amount of formulation without active compounds (which is actually used to prepare Gaucho 70 WS) is added. The mixture is allowed to dry until only a small amount of residual moisture can be detected. Using a spatula, the substance is carefully detached from the side of the mortar, and the substance is comminuted in the mortar until it has dried. An amount of the laboratory formulation thus prepared which is appropriate for the amount of seed to be dressed is filled into beakers of a size big enough so that, during dressing, they are at most one third filled with seed. A sufficient amount of water (depending on the properties of the seed surface) is then added. The seed is then filled into these beakers containing formulation and water and dressed on a test tube shaker with the aid of a spatula or glass rod. Once the formulation is distributed on the seed as uniformly as possible, the seed is allowed to dry in a fume hood.
(§7) 3 l trays made of plastic (20×20×5 cm) are filled with sandy loam. Using a punch, the soil is firmed such that the deposition depth required for the crop in question is achieved. 20 seeds/seed tray are placed at regular intervals with the aid of a pair of tweezers impressed into the soil using the abovementioned punch. The test containers are placed in a greenhouse and, using the punch, the surface is once again firmed gently. In addition to the test substances, an untreated control is tested, too. Per variant, there are at least 2 trays. The trays are watered and covered with a film until the plants have emerged. After emergence, the trays are watered 2 times a day. Evaluation is carried out by counting the plants that have emerged and by assessing damage, (in %) over an interval of 5-14 days after sowing in comparison to the untreated control.

Winter barley [4] = assay: Greenhouse trial with safener after seed dressing (seed trays), winter barley; conditions: evaluation after 14 d
Description: as §6, §7

[5] = tested on: bird cherry-oat aphid (Rhopalosiphum padi); assay: Safener test after spraying, variant b: kill of aphids on winter barley; conditions: spray
Description: (§8) To produce a suitable preparation of active compound, 1 part by weight of active compound is mixed with the stated amounts of solvent and emulsifier, and the concentrate is diluted with tap water to the desired concentration. The desired amount of safener (in the case of mefenpyr-diethyl as WP 20) is mixed into the water used for dilution. Furthermore, 2 g of ai/l of rapeseed oil methyl ester 500 EW are added. Leaves of winter barley at the 2-leaf stage which are infested by the bird cherry-oat aphid (Rhopalosiphum padi) are treated with the desired active compound and safener concentrations using a spray boom, the water application rate being 300 l/ha. Per variant, the test is carried out at least twice. Evaluation is carried out after 7 d and/or 14 d by assessing the plant damage in %, where both the treated plant and new growth and the kill of the grain aphids in % compared to the untreated control are evaluated. 100% damage means that the plant has died, and 0% means no damage. 100% effect on the grain aphids means that all aphids have been killed; 0% means that none of the aphids have been killed.
(§9) In variant b), the active compound is applied as an SC formulation in the desired concentrations as in variant a) in a mixture with mefenpyr-diethyl WP 20 and 2 g of ai/l rapeseed oil methyl ester 500 EW. Practice and evaluation is carried out as stated in variant a).

Winter barley [6] = assay: Safener test after spraying, variant b: plant damage
Description: as §8, §9

[7] = tested on: bird cherry-oat aphid (Rhopalosiphum padi); assay: Safener test after spraying, variant a: kill of aphids on winter barley; conditions: spray
Description: as §8

Winter barley [8] = assay: Safener test after spraying, variant a: plant damage
Description: as §8

[9] = variant b, spray, 200 g of ai/ha
[10] = variant b, spray, 200 g of ai/ha, 14 d
[11] = variant a, spray, 200 g of ai/ha

CCCCCC(C)OC(=O)COc1ccc(Cl)c2cccnc12 (centres unmarked) [Cloquintocet-mexyl a.i., 1-methylhexyl 5-chloroquinolin-8-oxyacetate]
Kill rate in % after 7 d ([1]; 100 ppm): 0%

C=CCN(CC=C)C(=O)C(Cl)Cl [Dichlormid a.i., 2,2-dichloro-N,N-di-2-propenylacetamide]
Kill rate in % after 7 d ([2]; 100 ppm): 0% | Kill rate in % after 7 d ([3]; 100 ppm): 0%

Cc1cc(Cl)cc(C)c1C1(Cl)C(=O)NC2(CCOCC2)C1=O (centres unmarked) [Example I-1-1]
% damage (Maize; 2 g of ai/kg of seed): 95% | plants that have emerged in % (Maize; 2 g of ai/kg of seed): 71% | % damage (Summer barley; 2 g of ai/kg of seed): 100% | plants that have emerged in % (Summer barley; 2 g of ai/kg of seed): 0% | % damage (Winter barley [4]; 2 g of ai/kg of seed): 100% | plants that have emerged in % (Winter barley [4]; 2 g of ai/kg of seed): 0% | Kill rate in % after 7 d ([2]; 20 ppm): 20%

COC1CCC2(CC1)NC(=O)C(Cl)(c1c(C)cc(Br)cc1C)C2=O (centres unmarked) [Example I-1-2]
Kill (%) 7 d ([5]; 8 g of ai/ha): 73% | Kill (%) 14 d ([5]; 8 g of ai/ha): 33% | Kill (%) 7 d ([5]; 40 g of ai/ha): 100% | Kill (%) 14 d ([5]; 40 g of ai/ha): 70% | Damage (%) 7 d (Winter barley [6]; winter barley, in vivo): 40% | Damage to new growth (%) 7 d (Winter barley [6]; winter barley, in vivo): 100% | Damage (%) 14 d (Winter barley [6]; winter barley, in vivo, 14 d): 60% | Kill (%) 7 d ([7]; 40 g of ai/ha): 100% | Kill (%) 14 d ([7]; 40 g of ai/ha): 78% | Damage (%) 7 d (Winter barley [8]; winter barley, in vivo): 40% | Damage to new growth (%) 7 d (Winter barley [8]; winter barley, in vivo): 70% | Damage (%) 14 d (Winter barley [8]; winter barley, in vivo): 50% | Damage to new growth (%) 14 d (Winter barley [8]; winter barley, in vivo): 80% | Kill rate in % after 3 d ([2]; 20 ppm): 0% | Kill rate in % after 7 d ([3]; 20 ppm): 25% | Kill rate in % after 7 d ([1]; 20 ppm): 45%

Clc1cc(Cl)nc(-c2ccccc2)n1 [Fenclorim a.i., 4,6-dichloro-2-phenylpyrimidine]
Kill rate in % after 3 d ([2]; 100 ppm): 0% | Kill rate in % after 7 d ([2]; 100 ppm): 0% | Kill rate in % after 7 d ([3]; 100 ppm): 0%

CC1(C)OC(c2ccco2)CN1C(=O)C(Cl)Cl (centres unmarked) [Furilazole a.i., 3-dichloroacetyl-5-(2-furanyl)-2,2-dimethyloxazolidine]
Kill rate in % after 3 d ([2]; 100 ppm): 0% | Kill rate in % after 7 d ([3]; 100 ppm): 0% | Kill rate in % after 7 d ([1]; 100 ppm): 0%

CCOC(=O)C1=NOC(c2ccccc2)(c2ccccc2)C1 [Isoxadifen-ethyl, ethyl 4,5-dihydro-5,5-diphenyl-3-isoxazolecarboxylate]
% damage (Maize; 1 g of ai/kg of seed): 0% | plants that have emerged in % (Maize; 1 g of ai/kg of seed): 96%

CCOC(=O)C1=NN(c2ccc(Cl)cc2Cl)C(C)(C(=O)OCC)C1 (centres unmarked) [Mefenpyr-diethyl, diethyl 1-(2,4-dichlorophenyl)-4,5-dihydro-5-methyl-1H-pyrazole-3,5-dicarboxylate]
% damage (Summer barley; 1 g of ai/kg of seed): 0% | plants that have emerged in % (Summer barley; 1 g of ai/kg of seed): 75% | % damage (Winter barley [4]; 1 g of ai/kg of seed): 0% | plants that have emerged in % (Winter barley [4]; 1 g of ai/kg of seed): 83% | Kill (%) 7 d ([5]; 200 g of ai/ha): 0% | Kill (%) 14 d ([5]; 200 g of ai/ha): 0% | Damage (%) 7 d (Winter barley [6]; [9]): 0% | Damage to new growth (%) 7 d (Winter barley [6]; [9]): 0% | Damage (%) 14 d (Winter barley [6]; [10]): 0% | Damage to new growth (%) 14 d (Winter barley [6]; [10]): 0% | Kill (%) 7 d ([7]; 200 g of ai/ha): 0% | Kill (%) 14 d ([7]; 200 g of ai/ha): 0% | Damage (%) 7 d (Winter barley [8]; [11]): 0% | Damage to new growth (%) 7 d (Winter barley [8]; [11]): 0% | Damage (%) 14 d (Winter barley [8]; [11]): 0% | Damage to new growth (%) 14 d (Winter barley [8]; [11]): 0%
